From ChEMBL document CHEMBL1156829 (Proc Natl Acad Sci U S A, 2008)

Assays:
Plasmodium falciparum [1] = experiment: NOVARTIS: Inhibition of Plasmodium falciparum 3D7 (drug-susceptible) proliferation in erythrocyte-based infection assay; assay type: functional, organism-based; details: Plasmodium falciparum, 3D7
Plasmodium falciparum [2] = experiment: NOVARTIS: Inhibition of Plasmodium falciparum W2 (drug-resistant) proliferation in erythrocyte-based infection assay; assay type: functional, organism-based; details: Plasmodium falciparum, W2; read-out: EC50
[3] = NOVARTIS: Cytotoxicity against human hepatocellular carcinoma cell line (Huh7); assay type: toxicity, cell-based, Huh-7; details: Huh7 cells (hepatocellular carcinoma cell line)

SMILES	EC50 (Plasmodium falciparum [1]) [µM]	EC50 (Plasmodium falciparum [2]) [µM]	CC50 [3] [µM]
CC(CNC(=O)c1cn(C2CCCCC2)cc(C(=O)NC(C)(C)C)c1=O)c1ccccc1 (configuration not stated)	0.174	< 0.015	> 10
Cc1ccnc(Nc2nc(-c3ccc(Cl)cc3)cs2)c1	4.51	> 12.5	> 100
O=C(C=Cc1ccc(Br)cc1)NC(=O)c1ccccc1O	0.684	2.04	> 100
O=C(Nc1cc(C(F)(F)F)ccc1OCc1ccccc1)c1ccccc1O	> 1.25	0.949	> 10
O=C(CCl)Nc1ccc(Cl)cc1	0.544	0.342	5.7
CCCCCCCCC(=O)NCCCCNc1ccnc2cc(Cl)ccc12	1.15	0.286	5.6
Cc1ccn2c(NC(C)(C)CC(C)(C)C)c(-c3ccccc3OC(=O)c3cccc(F)c3)nc2c1	0.581	< 0.00837	> 10
COc1ccc([N+](=O)[O-])cc1C=NNc1nc(Nc2ccc([N+](=O)[O-])cc2)nc(N2CCN(C)CC2)n1	0.859	0.388	30.7
Cc1ccc(C(=O)N(CCc2ccccc2)C(C)c2nc3ccccc3c(=O)n2-c2cccc(Cl)c2C)cc1[N+](=O)[O-] (configuration not stated)	> 1.61	0.887	> 10
Cc1ccc(CN2CCc3nc(N4CCCCC4)sc3C2)s1	0.0141	0.0105	> 10
CCCCCCC(=O)Oc1ccccc1-c1nc2cc(C)ccn2c1NC(C)(C)CC(C)(C)C	0.636	0.0803	> 10
COc1cc2nc(Nc3cccc(F)c3)nc(N)c2cc1OC	0.148	0.358	20.1
Cc1cc(C)c(S(=O)(=O)N(C)CCCNc2ccnc3cc(Cl)ccc23)c(C)c1	0.167	0.229	26.8
O=C(Nc1ccc(-n2cccn2)cc1)C1CCN(Cc2nc3c(s2)CCCC3)CC1	1.35	0.894	> 100
CCOC(=O)C1=C(C)NC2=C(C(=O)C(C(=O)OCC)C(c3ccccc3OC)C2)C1c1cc(OC)c(OC)c(OC)c1 (configuration not stated)	1.5	0.713	> 100
O=[N+]([O-])c1cc(C(F)(F)F)c(Cl)c([N+](=O)[O-])c1Nc1cc(C(F)(F)F)ccc1Cl	0.565	0.301	6.13
N#Cc1c2c(c(N3CCN(c4ccccn4)CC3)n3c1nc1ccccc13)CCC2	2.36	1.18	> 100
CC(=O)Nc1ccc(Oc2ccc(C(c3ccccc3)(c3ccccc3)c3ccc(Oc4ccc(NC(C)=O)cc4)cc3)cc2)cc1	0.36	0.747	> 10
Cc1ccc(NC(=O)N2CCN(CCN(Cc3ccc(F)cc3)C(=O)c3ccccc3C)CC2)cc1	> 1.74	0.818	> 10
CN(C)c1cc(NC(=O)Nc2ccccc2)c2ccccc2n1	0.148	0.332	6.78
COc1ccc(Nc2nc3nonc3nc2NN=Cc2cc(Cl)ccc2O)cc1	1.78	1.62	> 3.17
CCN1C=CC(=Cc2ccc3ccccc3[n+]2C)C=C1	0.453	0.976	20
CCOc1ccc(NC(=O)c2ccc(C)o2)cc1	3.71	4.43	13

SMILES	EC50 (Plasmodium falciparum [1]) [µM]	EC50 (Plasmodium falciparum [2]) [µM]	CC50 [3] [µM]
Cc1cc(C)n(CC(O)Cn2c3ccc(I)cc3c3cc(I)ccc32)n1 (configuration not stated)	1.19	0.296	> 100
CC(=O)N(C1=C(N(C)C)C(=O)c2ccccc2C1=O)c1ccc(Cl)c(Cl)c1	0.082	0.0734	8.35
COC(=O)C1=C(C)N/C(=C/c2cc(C)n(-c3ccc(Cl)c(Cl)c3)c2C)C1=O	> 1.02	> 1.25	> 10
O=C(c1ccc([N+](=O)[O-])cc1)c1ccc(Cl)c(Cl)c1	0.251	0.555	> 100
O=C(Nc1ccc(Cl)c(Cl)c1)Nc1cc(C(=O)NCCCN2CCCCCC2)ccc1Cl	0.791	1.42	> 43
COc1ccc2[nH]c3ccccc3c(=O)c2c1	4.32	3.15	> 100
Cc1cccc(NC2=NC(N)=NC(C)(C)N2)c1	0.0576	0.312	> 10
CN(CCCNc1ccnc2cc(Cl)ccc12)C(=O)CSc1ccccc1	0.00717	0.0203	> 10
C#CCNC(=O)c1ccc(OC2CCN(CC3CCCCC3)CC2)c(Cl)c1	0.499	0.396	> 100
CC(C)(C[N+](C)(C)C)C1OC2CCCCC2C2C=CCCC21 (configuration not stated)	0.999	0.565	> 100
Cc1ccn2c(NC(C)(C)CC(C)(C)C)c(-c3ccccc3OC(=O)c3cccs3)nc2c1	0.667	0.0393	> 10
COc1ccc(C2N(Cc3ccccc3)c3ccccc3N2Cc2ccccc2)cc1	0.561	0.431	53
CC(C)CN1C(=O)c2ccccc2C(C(=O)Nc2ccc(F)c(Cl)c2)C1c1cccs1 (configuration not stated)	0.121	0.12	> 95.2
Cc1nn(CC(O)Cn2c3ccc(Br)cc3c3cc(Br)ccc32)c(C)c1Br (configuration not stated)	0.769	0.177	75.2
COc1ccc(CC(=O)Nc2ccc(S(=O)(=O)N3CCCCCC3)cc2)cc1	> 12.5	9.69	> 100
CCN(c1ccc(OC)cc1)S(=O)(=O)c1ccc(C)cc1	> 12.5	1.37	> 100
CCCCCCCN(CCCCCCC)CC(O)c1cc2ccccc2c2cc(Br)ccc12 (configuration not stated)	0.867	0.137	> 4.63
COc1cc2c(cc1OC)C1=NC(=O)C(C(C)C)N1C(SCc1csc(Cl)n1)=N2 (configuration not stated)	> 1.42	0.0316	14.3
COC(=O)C1=C(C)N/C(=C\c2cc(C)n(-c3cc(C)ccc3C)c2C)C1=O	0.0124	0.0151	> 10
CC(C)(C)CC(C)(C)Nc1c(-c2ccccc2OC(=O)/C=C/c2ccccc2)nc2ccccn12	0.457	0.034	> 10
COc1ccc(CCNc2nc(NCCCn3ccnc3)ncc2C(=O)NCc2ccccc2)cc1OC	1	> 1.25	> 10
OCCC1CN(Cc2cccc(Cl)c2)CCN1Cc1ccccc1 (configuration not stated)	> 12.5	1.73	> 100
CC(C)COc1nc(-c2ccccc2)n(S(=O)(=O)c2cccc3cccnc23)n1	0.0423	0.00456	> 2.16

SMILES	EC50 (Plasmodium falciparum [1]) [µM]	EC50 (Plasmodium falciparum [2]) [µM]	CC50 [3] [µM]
Nc1nc(N)c2cc(S(=O)(=O)N3CCOCC3)ccc2n1	0.0626	> 12.5	5.05
COc1cc2c3cc1Oc1c(OC)c(OC)cc4c1C(Cc1ccc(O)c(c1)Oc1ccc(cc1)CC3N(C)CC2)N(C)CC4 (configuration not stated)	0.997	1.06	> 10
Cc1nc(N2CCN(C)CC2)c2c(C)c(C(=O)NCCN(C)C)sc2n1	> 1.6	> 1	> 10
COc1cccc(/C=C2/SC(=Nc3ccccc3)NC2=O)c1OC	> 1.15	> 1.25	> 10
COc1ccc(C2CC(=O)C3=C(C2)NC(C)=C(C(=O)OC2CCCC2)C3c2ccc(OC)cc2)cc1 (configuration not stated)	3.26	0.649	> 100
O=C1CCC(c2ccc(Cl)c(Cl)c2)c2ccc(O)cc21 (configuration not stated)	0.449	> 0.914	> 9.27
CCSc1ccc2ccccc2[n+]1CC	0.179	0.227	> 100
Cc1ccc2nc(C)cc(NCCN(C)C)c2c1	0.36	0.709	59.1
C[C@@H]1CC[C@H]2[C@@H](C)C(=O)O[C@@H]3O[C@@]4(C)CC[C@@H]1[C@]32OO4 [ARTEMISININ]	0.043	0.0103	> 10
O=C(Nc1ccc(-c2nc3cc(NC(=O)c4ccc(Br)o4)ccc3[nH]2)cc1)c1ccc(Br)o1	0.294	0.709	2.25
O=C(Cn1ccc(=NCc2ccccc2)cc1)c1ccc(Cl)cc1	0.296	0.602	12.8
CCC(Nc1ccc(OC)cc1)=C1C(=O)CC(C)(C)CC1=O	> 4.14	3.95	> 100
CCOC(=O)C1=C(C)NC2=C(C(=O)C(C(=O)OCC)C(c3ccccc3OC)C2)C1c1ccc(OC)c(OC)c1 (configuration not stated)	0.0831	0.0744	> 100
CCc1c(C#N)c(N)nc2sc(C(=O)c3ccc(Br)cc3)c(N)c12	5.46	> 12.5	> 100
O=C(Cn1c2ccccc2c(=O)c2ccc(Cl)cc21)Nc1ccc(C(F)(F)F)cc1	9.87	4.54	> 100
COc1cc(NC2=CC(=O)C(=O)c3ccccc32)c(OC)cc1Cl	0.293	0.687	11.2
CC[N+]1(CCOc2ccc(C34CC5CC(CC(C5)C3)C4)cc2)CCCCC1	1.01	0.746	58.2
Cc1c(Cl)cccc1NC(=O)c1cccnc1Cl	> 1.25	> 1.15	> 10
O=C(Cn1c(=O)oc2cc(Cl)ccc21)c1ccccc1	> 12.5	4.5	28.4
COc1cccc(C2C(C(=O)Nc3ccc(C)cc3C)=C(C)Nc3c(C(=O)Nc4ccccc4)cnn32)c1 (configuration not stated)	0.59	0.19	> 100
CCCCNC(=O)CCCNC(=O)Cn1cnc2sc3c(c2c1=O)CCCC3	> 1.25	> 0.683	> 10
CN(C)c1ccc(Nc2nc(NCC3CCCO3)c3ccccc3n2)cc1 (configuration not stated)	0.852	0.805	11.3
CC(C)(C)NCC(O)Cn1c2ccc(Br)cc2c2cc(Br)ccc21 (configuration not stated)	0.213	0.0141	20.7
